For four compounds, MIC and Activity results are on record in ChEMBL document CHEMBL1145500, “In vitro bactericidal activity of the antiprotozoal drug miltefosine against Streptococcus pneumoniae and other pathogenic streptococci” (2007).

Values after ≈ are worked out from the molar mass of the structure shown. Active and inactive are the calls of the source. The calls are words filed in the database; no cut-off is given here. Some results are limits rather than exact numbers.

For experiment [1], the system named is Streptococcus pneumoniae. In words: Antimicrobial activity against Streptococcus pneumoniae spain 23F-1. It counts as functional.
The test system of experiment [2] is Streptococcus sp. The experiment is described as follows: Antimicrobial activity against Streptococcus sp.11923/96. It counts as functional.
For experiment [3], the system named is Streptococcus sp. In words: Antimicrobial activity against Streptococcus sp. 782/96. In kind it is functional.
Experiment [4] deals with Streptococcus pneumoniae. In words: Induction of autolysin LytA in Streptococcus pneumoniae M32 assessed as log reduction in bacterial count at 25 uM after 15 mins. In kind it is functional.
For experiment [5], the system named is Streptococcus pseudopneumoniae. In words: Bactericidal effect on Streptococcus pseudopneumoniae at 10 uM. It counts as functional.
Experiment [6] relates to Streptococcus pneumoniae. The experiment is described as follows: Antimicrobial activity against Streptococcus pneumoniae 8249. In kind it is functional.
The test system of experiment [7] is Streptococcus mitis. In words: Antimicrobial activity against Streptococcus mitis NCTC 12161. It counts as functional.
For experiment [8], the system named is Streptococcus pneumoniae. In words: Induction of autolysin LytA Streptococcus pneumoniae M32 assessed as log reduction in bacterial count at 25 uM after 3 hrs. It counts as functional.
The test system of experiment [9] is Streptococcus pneumoniae. In words: Lytic effect on Streptococcus pneumoniae M32 in presence of 10 ug/ml LytA amidase. It counts as functional, organism-based.
The subject of experiment [10] is Streptococcus pyogenes. The experiment is described as follows: Antimicrobial activity against Streptococcus pyogens CECT 985.
For experiment [11], the system named is Streptococcus pneumoniae. The experiment is described as follows: Antimicrobial activity against Streptococcus pneumoniae R6. It counts as functional.
The subject of experiment [12] is Streptococcus sp. In words: Bactericidal effect on Streptococcus sp. 782/96 at 10 uM. It counts as functional, organism-based.
The test system of experiment [13] is Streptococcus pneumoniae. The experiment is described as follows: Antimicrobial activity against Streptococcus pneumoniae M32. In kind it is functional.
In experiment [14] the test system is Streptococcus mutans. The experiment is described as follows: Antimicrobial activity against Streptococcus mutans CECT 479. It counts as functional.
Experiment [15] has as its system Streptococcus pneumoniae. The experiment is described as follows: Antimicrobial activity against Streptococcus pneumoniae ATCC 6303. It counts as functional.
In experiment [16] the test system is Streptococcus oralis. In words: Antimicrobial activity against Streptococcus oralis NCTC 11427.
Experiment [17] deals with Streptococcus agalactiae. The experiment is described as follows: Antimicrobial activity against Streptococcus agalactiae CECT 183. In kind it is functional.
For experiment [18], the system named is Streptococcus sp. In words: Bactericidal effect on Streptococcus sp.11923/96 at 10 uM. In kind it is functional, organism-based.
For experiment [19], the system named is Enterococcus faecalis. The experiment is described as follows: Antimicrobial activity against Enterococcus faecalis. It counts as functional.

A word on the MIC: it is the lowest concentration found to suppress growth. Low readings indicate inhibition by little substance, high ones a need for much substance. On to `O=C(N[C@H](CO)[C@H](O)c1ccc([N+](=O)[O-])cc1)C(Cl)Cl` [CHLORAMPHENICOL], for which the MIC in [1] is greater than 8 µg/mL.

Turning to `CC[C@H]1OC(=O)[C@H](C)[C@@H](O[C@H]2C[C@@](C)(OC)[C@@H](O)[C@H](C)O2)[C@H](C)[C@@H](O[C@@H]2O[C@H](C)C[C@H](N(C)C)[C@H]2O)[C@](C)(O)C[C@@H](C)C(=O)[C@H](C)[C@@H](O)[C@]1(C)O` [ERYTHROMYCIN], the MIC was 4 µg/mL (≈ 5.45 µM) in [2] and greater than 128 µg/mL in [3].

For `CCCCCCCCCCCCCCCCOP(=O)([O-])OCC[N+](C)(C)C` [MILTEFOSINE], the values for the Activity in experiment [4] and in experiment [8] were 2 and 4, respectively. Besides, the outcome in experiment [5], in experiment [9], in [12] and in experiment [18] was Active. In addition, the MIC in [6] was found to be 6.25 µM (≈ 2.55 µg/mL); in [7], 10 µM (≈ 4.08 µg/mL); in [10], 10 µM (≈ 4.08 µg/mL); in [11] it was 5 µM (≈ 2.04 µg/mL); in experiment [13] it was 5 µM (≈ 2.04 µg/mL); in experiment [14], 20 µM (≈ 8.15 µg/mL). Moreover, the MIC in experiment [15] came to 6.25 µM (≈ 2.55 µg/mL); in experiment [16], 10 µM (≈ 4.08 µg/mL); in experiment [17], 20 µM (≈ 8.15 µg/mL); in [19], 20 µM (≈ 8.15 µg/mL); in [1] it was 6.25 µM.

Consider `CN(C)[C@@H]1C(O)=C(C(N)=O)C(=O)[C@@]2(O)C(O)=C3C(=O)c4c(O)cccc4[C@@](C)(O)[C@H]3C[C@@H]12` [TETRACYCLINE], for which the MIC in [2] came to 0.5 µg/mL (≈ 1.13 µM); in experiment [3], 128 µg/mL (≈ 288 µM); in experiment [1] it was 8 µg/mL.
